Data as given in patent US20230167127A1, “COMPOUNDS AND THEIR USE IN THE TREATMENT OF BACTERIAL INFECTION” (Hoffmann-La Roche Inc., priority 2020, published 2023).

The compounds below were run on Escherichia coli ATCC 25922 (assay: 50% growth inhibitory concentration (IC50) determination, Iso-Sensitest broth dilution). Conditions: Escherichia coli, ATCC25922, 16 h, strain Escherichia coli ATCC 25922; 10-point broth dilution, optical density at 600 nm over 16 h; read-out: Escherichia coli growth inhibition IC50.
Assay type: cell-based
How it was run: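 Growth was tracked as optical density at 600 nm every 20 minutes for 16 h at 35±2° C. Compounds from DMSO stocks were serially diluted twofold over 10 points (e.g. 50–0.097 μM final) in Iso-Sensitest broth. Inhibition computed in log-phase growth to give IC50.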

SMILES	IC50 [nM]
O=C1COc2ccc(N3CC(CCNCC4Cc5ccnc(Cl)c5C4)OC3=O)nc2N1 (centres unmarked) [Example 86, 6-[5-[2-[(1-chloro-6,7-dihydro-5H-cyclopenta[c]pyridin-6-yl)methylamino]ethyl]-2-oxo-1,3-oxazolidin-3-yl]-4H-pyrido[3,2-b][1,4]oxazin-3-one]	134
CC1(CCNCC2Cc3c(Cl)cccc3C2N)CN(c2cnc3c(n2)NC(=O)CO3)C(=O)O1 (racemic) [Example 375, 6-[5-methyl-2-oxo-5-[2-[(rac-1,2-trans-1-amino-4-chloro-2,3-dihydro-1H-inden-2-yl)methylamino]ethyl]-1,3-oxazolidin-3-yl]-4H-pyrazino[2,3-b][1,4]oxazin-3-one]	351
NC(=O)COc1cc(F)c2c(c1)CC(CNCC[C@@H]1CN(c3cnc4c(n3)NC(=O)CO4)C(=O)O1)C2 (single isomer, unassigned; isomer a) [Example 381]	105
O=C1COc2ncc(N3CC(CCNCC4Cc5cc(OCCN6CCOC6=O)cc(F)c5C4)OC3=O)nc2N1 (centres unmarked) [Example 304, 6-[5-[2-[[4-fluoro-6-[2-(2-oxo-1,3-oxazolidin-3-yl)ethoxy]-2,3-dihydro-1H-inden-2-yl]methylamino]ethyl]-2-oxo-1,3-oxazolidin-3-yl]-4H-pyrazino[2,3-b][1,4]oxazin-3-one; formic acid]	446
NC1c2cccc(Cl)c2CC1CNCCCC1CN(c2ccc3c(n2)NC(=O)CO3)C(=O)O1 (racemic) [Example 227, 6-[2-Oxo-5-[3-[[rac-1,2-trans-1-amino-4-chloro-2,3-dihydro-1H-inden-2-yl]methylamino]propyl]-1,3-oxazolidin-3-yl]-4H-pyrido[3,2-b][1,4]oxazin-3-one]	132
N#Cc1c(OCCN2CCOCC2)ccc2c1CC(CNCCC1CN(c3ccc4c(n3)NC(=O)CO4)C(=O)O1)C2 (centres unmarked) [Example 54, 5-(2-morpholin-4-ylethoxy)-2-[[2-[2-oxo-3-(3-oxo-4H-pyrido[3,2-b][1,4]oxazin-6-yl)-1,3-oxazolidin-5-yl]ethylamino]methyl]-2,3-dihydro-1H-indene-4-carbonitrile; formic acid]	357
Cc1nc(Cl)c(F)c2c1CC(CNCCC1CN(c3cnc4c(n3)NC(=O)CO4)C(=O)O1)C2 (centres unmarked) [Example 398, 6-[5-[2-[(3-chloro-4-fluoro-1-methyl-6,7-dihydro-5H-cyclopenta[c]pyridin-6-yl)methylamino]ethyl]-2-oxo-1,3-oxazolidin-3-yl]-4H-pyrazino[2,3-b][1,4]oxazin-3-one]	< 97.7
NC1(COc2cc(F)c3c(c2)CC(CN2CCC4(CC2)CN(c2cnc5c(n2)NC(=O)CO5)C(=O)O4)C3)CC1 (centres unmarked) [Example 257, 6-[8-[[6-[(1-Aminocyclopropyl)methoxy]-4-fluoro-2,3-dihydro-1H-inden-2-yl]methyl]-2-oxo-1-oxa-3,8-diazaspiro[4.5]decan-3-yl]-4H-pyrazino[2,3-b][1,4]oxazin-3-one; formic acid]	< 97.7
N#Cc1cc(OCc2cnn[nH]2)cc2c1CC(CNCCC1CN(c3cnc4c(n3)NC(=O)CO4)C(=O)O1)C2 (centres unmarked) [Example 425, 2-[[2-[2-Oxo-3-(3-oxo-4H-pyrazino[2,3-b][1,4]oxazin-6-yl)-1,3-oxazolidin-5-yl]ethylamino]methyl]-6-(1N-triazol-5-ylmethoxy)-2,3-dihydro-1H-indene-4-carbonitrile]	102
O=C1COc2ccc(N3CC(CCCNCC4Cc5cccc(Cl)c5C4)OC3=O)nc2N1 (centres unmarked) [Example 2, 6-[5-[3-[(4-chloro-2,3-dihydro-1H-inden-2-yl)methylamino]propyl]-2-oxo-1,3-oxazolidin-3-yl]-4H-pyrido[3,2-b][1,4]oxazin-3-one]	332
Cc1nc(OCCCN)c(C)c2c1CC(CNCCC1CN(c3ccc4c(n3)NC(=O)CO4)C(=O)O1)C2 (centres unmarked) [Example 176, 6-[5-[2-[[3-(3-aminopropoxy)-1,4-dimethyl-6,7-dihydro-5H-cyclopenta[c]pyridin-6-yl]methylamino]ethyl]-2-oxo-1,3-oxazolidin-3-yl]-4H-pyrido[3,2-b][1,4]oxazin-3-one]	483

Next, values leading:

IC50 [nM]	SMILES
131	NC1c2cccc(F)c2CC1CNCCC1CN(c2ccc3c(n2)NC(=O)CO3)C(=O)O1 (racemic) [Example 163, 6-[5-[2-[(rac-1,2-trans-1-amino-4-fluoro-2,3-dihydro-1H-inden-2-yl)methylamino]ethyl]-2-oxo-1,3-oxazolidin-3-yl]-4H-pyrido[3,2-b][1,4]oxazin-3-one]
180	CNC(=O)C(N)COc1cc(F)c2c(c1)CC(CNCCC1CN(c3ccc4c(n3)NC(=O)CO4)C(=O)O1)C2 (centres unmarked) [Example 255, 2-Amino-3-[[7-fluoro-2-[[2-[2-oxo-3-(3-oxo-4H-pyrido[3,2-b][1,4]oxazin-6-yl)-1,3-oxazolidin-5-yl]ethylamino]methyl]-2,3-dihydro-1H-inden-5-yl]oxy]-N-methylpropanamide; formic acid]
< 97.7	NC1c2cccc(Cl)c2CC1CCN1CC2(C1)CN(c1ccc3c(n1)NC(=O)CO3)C(=O)O2 (racemic) [Example 195, 6-[6-oxo-2-[2-[rac-1,2-trans-1-amino-4-chloro-2,3-dihydro-1H-inden-2-yl]ethyl]-5-oxa-2,7-diazaspiro[3.4]octan-7-yl]-4H-pyrido[3,2-b][1,4]oxazin-3-one; 2,2,2-trifluoroacetic acid]
< 97.7	COc1cc2c(c(C#N)n1)CC(CNCCC1CN(c3cnc4c(n3)NC(=O)CO4)C(=O)O1)C2 (centres unmarked) [Example 65, 3-methoxy-6-[[2-[2-oxo-3-(3-oxo-4H-pyrazino[2,3-b][1,4]oxazin-6-yl)oxazolidin-5-yl]ethylamino]methyl]-6,7-dihydro-5H-cyclopenta[c]pyridine-1-carbonitrile; formic acid]
374	NC1c2cc(OCC3(N)CC3)cc(Cl)c2CC1CNCCC1CN(c2cnc3c(n2)NC(=O)CO3)C(=O)O1 (racemic) [Example 282, 6-[2-Oxo-5-[2-[[rac-1,2-trans-1-amino-6-[(1-aminocyclopropyl)methoxy]-4-chloro-2,3-dihydro-1H-inden-2-yl]methylamino]ethyl]-1,3-oxazolidin-3-yl]-4H-pyrazino[2,3-b][1,4]oxazin-3-one; formic acid]
< 97.7	CC(C)(N)COc1cc(F)c2c(c1F)CC(CN1CCC3(CC1)CN(c1cnc4c(n1)NC(=O)CO4)C(=O)O3)C2 (centres unmarked) [Example 412, 6-[8-[[5-(2-amino-2-methylpropoxy)-4,7-difluoro-2,3-dihydro-1H-inden-2-yl]methyl]-2-oxo-1-oxa-3,8-diazaspiro[4.5]decan-3-yl]-4H-pyrazino[2,3-b][1,4]oxazin-3-one; formic acid]
317	O=C1COc2ncc(N3CC(CCNCC4Cc5cc(OCCn6ncnn6)cc(F)c5C4)OC3=O)nc2N1 (centres unmarked) [Example 348, 6-[5-[2-[[4-fluoro-6-[2-(tetrazol-2-yl)ethoxy]-2,3-dihydro-1H-inden-2-yl]methylamino]ethyl]-2-oxo-1,3-oxazolidin-3-yl]-4H-pyrazino[2,3-b][1,4]oxazin-3-one; formic acid]
< 97.7	NC1c2cccc(Cl)c2CC1CNCCC1CN(c2ccc3c(n2)NC(=O)CO3)C(=O)O1 (single isomer, unassigned; isomer a) [Example 207, 6-[2-Oxo-5-[2-[[1,2-trans-1-amino-4-chloro-2,3-dihydro-1H-inden-2-yl]methylamino]ethyl]-1,3-oxazolidin-3-yl]-4H-pyrido[3,2-b][1,4]oxazin-3-one, Isomer A]
< 97.7	COc1ncc(F)c2c1CC(CNCCC1CN(c3cnc4c(n3)NC(=O)CO4)C(=O)O1)C2 (centres unmarked) [Example 71, 6-[5-[2-[(4-fluoro-1-methoxy-6,7-dihydro-5H-cyclopenta[c]pyridin-6-yl)methylamino]ethyl]-2-oxo-oxazolidin-3-yl]-4H-pyrazino[2,3-b][1,4]oxazin-3-one]
941	CC(=O)NCCOc1ccc2c(c1C#N)CC(CNCCC1CN(c3ccc4c(n3)NC(=O)CO4)C(=O)O1)C2 (centres unmarked) [Example 56, N-[2-[[4-cyano-2-[[2-[2-oxo-3-(3-oxo-4H-pyrido[3,2-b][1,4]oxazin-6-yl)-1,3-oxazolidin-5-yl]ethylamino]methyl]-2,3-dihydro-1H-inden-5-yl]oxy]ethyl]acetamide]
< 97.7	Cc1ncc(F)c2c1CC(CCNCC1CN(c3cnc4c(n3)NC(=O)CO4)C(=O)O1)C2 (centres unmarked) [Example 265, 6-[5-[[2-(4-Fluoro-1-methyl-6,7-dihydro-5H-cyclopenta[c]pyridin-6-yl)ethylamino]methyl]-2-oxo-1,3-oxazolidin-3-yl]-4H-pyrazino[2,3-b][1,4]oxazin-3-one; formic acid]
198	NC1c2cccc(Cl)c2CC1CNCCc1nn(-c2ccc3c(n2)NC(=O)CO3)c(=O)o1 (racemic) [Example 153, 6-[5-[2-[(rac-1,2-trans-1-amino-4-chloro-2,3-dihydro-1H-inden-2-yl)methylamino]ethyl]-2-oxo-1,3,4-oxadiazol-3-yl]-4H-pyrido[3,2-b][1,4]oxazin-3-one]

Same assay, conditions: strain Escherichia coli ATCC 25922; 10-point broth dilution, optical density at 600 nm over 16 h; read-out: Escherichia coli growth inhibition IC50

IC50 [nM]	SMILES
156	N#Cc1cccc2c1CC(CN1CCC3(CN(c4ccc5c(n4)NC(=O)CO5)C(=O)O3)C(CN)C1)C2 (racemic) [Example 252, 2-[[rac-5,6-trans-6-(Aminomethyl)-2-oxo-3-(3-oxo-4H-pyrido[3,2-b][1,4]oxazin-6-yl)-1-oxa-3,8-diazaspiro[4.5]decan-8-yl]methyl]-2,3-dihydro-1H-indene-4-carbonitrile; formic acid]
< 97.7	NC(=O)COc1cc(F)c2c(c1)CC(CNCC[C@H]1CN(c3cnc4c(n3)NC(=O)CO4)C(=O)O1)C2 (single isomer, unassigned; isomer b) [Example 380]
158	NC(=O)COc1cc(F)c2c(c1)CC(CNCC[C@@H]1CN(c3cnc4c(n3)NC(=O)CO4)C(=O)O1)C2 (single isomer, unassigned; isomer b) [Example 382]
